The values that follow come from US7772187B2, “Substances directed against a specific sequence essential for heparanase catalytic activity and uses thereof as heparanase inhibitors” (Hadasit Medical Research Services and Development Company, …, priority 2004, dated 2010).

In assay [1] the test system is heparanase processing. The assay can be described thus: Heparanase processing in heparanase-transfected cells (immunoblot with antibody #1453). It counts as cell-based, human.
Experimental: Total cell lysates were immunoblotted with anti-heparanase antibody #1453.
Total cell lysates were then analyzed for heparanase processing by immunoblotting as above.
Total cell lysates were analyzed by immunoblotting as above.
Cell extracts were prepared using a lysis buffer containing 50 mM Tris-HCl, pH 7.4, 150 mM NaCl, 0.5% Triton X-100, supplemented with a cocktail of protease inhibitors (Roche, Indianapolis, Ind.). Protein concentration was determined (Bradford reagent, BioRad, Hercules, Calif.) and 30 μg protein was resolved by SDS-PAGE under reducing conditions using 10% gels. After electrophoresis, proteins were transferred to PVDF membrane (BioRad) and probed with the appropriate antibody followed by HRP-conjugated secondary antibody (Jackson ImmunoResearch, West Grove, Pa.) and an enhanced chemiluminescent substrate (Pierce).
The subject of assay [2] is heparanase processing. The note with it: U87 glioma cells pre-treated with 100 μM for 2 hours.
Experimental: The latent 65 kDa heparanase protein was then added for the indicated time points and total cell lysates were analyzed for heparanase processing by immunoblotting as above.
Cells were then fixed and immunostained with anti heparanase monoclonal antibody (BD, upper panel) and anti heparanase (733, second panel) antibodies. Merge images are shown at the third panel.
For uptake studies, the 65 kDa heparanase precursor was added to confluent cell cultures at a concentration of 1 μg/ml under serum-free conditions. At the indicated time points, the medium was aspirated, cells were washed twice with ice-cold PBS and total cell lysates were prepared as described. Heparanase uptake and processing were analyzed by immunoblotting with antibody #1453.
The test system of assay [3] is heparanase processing.
Text: In order to further rule out the plasma membrane as the heparanase processing site, heparanase was targeted to the cell membrane by introducing the PDGF-R transmembrane domain at the heparanase C-terminus.
For assay [4], the target named is T1, heparanase (Homo sapiens, UniProt Q9Y251).
T1 construct: a heterodimer composed of the 8 kDa polypeptide non-covalently associated with the 50 kDa heparanase subunit; ImClone Systems Inc. (gift of Dr Miao, not purchased)
T1 sequence (Q9Y251 158-543 limits assumed): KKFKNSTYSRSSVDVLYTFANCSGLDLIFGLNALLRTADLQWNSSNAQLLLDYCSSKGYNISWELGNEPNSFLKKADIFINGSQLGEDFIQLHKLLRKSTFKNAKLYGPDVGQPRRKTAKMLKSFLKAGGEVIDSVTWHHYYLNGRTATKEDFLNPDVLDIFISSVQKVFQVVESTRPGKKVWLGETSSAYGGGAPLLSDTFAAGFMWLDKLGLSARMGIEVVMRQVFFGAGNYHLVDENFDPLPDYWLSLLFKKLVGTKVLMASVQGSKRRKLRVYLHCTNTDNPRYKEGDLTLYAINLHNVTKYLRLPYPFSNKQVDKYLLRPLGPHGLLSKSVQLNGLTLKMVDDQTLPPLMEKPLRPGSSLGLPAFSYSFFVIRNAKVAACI
T1 sequence (Q9Y251 36-109 partner limits assumed): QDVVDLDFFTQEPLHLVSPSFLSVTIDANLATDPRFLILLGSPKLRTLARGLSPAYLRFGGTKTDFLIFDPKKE
The assay can be described thus: Heparanase activity assay, purified/recombinant active heparanase on 35S-labeled ECM. The note with it: recombinant active heparanase 40 ng, 2 h, pH 7, 10 μg or 25 μg peptide, dose dependent, versus scrambled peptide. It counts as biochemical. Here is the method: FIG. 6A. Purified, active heparanase (20 ng) was added to 1 ml RPMI medium and incubated with affinity-purified antibody #733 (10 μg, ▴), or rabbit IgG (♦) for 1 hour on ice, followed by 1 hour incubation with ^35S-labeled ECM. Heparanase activity was determined as described in ‘Experimental procedures’.
A Purified, recombinant active heparanase (40 ng) was incubated (2 h, pH 7) with 10 μg (▴) or 25 μg (▪) of a peptide containing the amino acid sequence of residues 158 to 171, or with a control, scrambled, peptide (♦). Note a dose-responsive inhibition of heparanase activity upon treatment with the 158-171 peptide.
Preparation of ECM-coated dishes and determination of heparanase activity were performed as described in detail elsewhere [Vlodavsky, I. Current protocols in Cell Biology Vol. 1 pp. 10.14.11-10.14.14, John Wiley & Sons, New York (1999b); Goldshmidt, O. et al., J. Biol. Chem. 276, 29178-29187 (2001); Goldshmidt (2002) ibid.]. […]
To further investigate the importance of this sequence in heparanase catalytic activity, competition experiments were next performed. In these experiments, recombinant active heparanase (40 ng) was incubated (2 h, pH 7) with different concentrations of a peptide containing the amino acid sequence of residues 158 to 171, or with a control scrambled peptide (Scr), and enzymatic activity was determined. […]

Assay [5] deals with T2, heparanase (Homo sapiens, UniProt Q9Y251).
T2 sequence (Q9Y251 36-543): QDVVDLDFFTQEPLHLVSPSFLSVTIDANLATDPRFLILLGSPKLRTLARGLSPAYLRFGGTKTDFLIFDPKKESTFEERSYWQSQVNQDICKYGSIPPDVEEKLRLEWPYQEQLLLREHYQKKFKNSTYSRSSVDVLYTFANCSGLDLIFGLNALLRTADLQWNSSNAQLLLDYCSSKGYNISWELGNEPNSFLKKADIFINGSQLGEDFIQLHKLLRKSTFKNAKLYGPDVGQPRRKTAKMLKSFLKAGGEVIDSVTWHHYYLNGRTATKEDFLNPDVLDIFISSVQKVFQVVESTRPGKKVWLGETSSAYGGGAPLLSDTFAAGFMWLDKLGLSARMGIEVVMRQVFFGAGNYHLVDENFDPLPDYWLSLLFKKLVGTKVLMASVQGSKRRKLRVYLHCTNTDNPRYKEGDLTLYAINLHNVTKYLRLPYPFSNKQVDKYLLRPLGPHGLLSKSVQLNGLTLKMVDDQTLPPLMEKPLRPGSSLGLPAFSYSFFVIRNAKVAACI
The note with it: literature (Miao 1999; Parish 1999; Vlodavsky 1994); cited from earlier work.

Turning to `CO/C1=C\C(C)=C\[C@@H](C)[C@@H](O)[C@@H](C)C/C(C)=C/C=C/[C@H](OC)[C@@H]([C@@H](C)[C@@H](O)[C@H](C)[C@@]2(O)C[C@@H](O)[C@H](C)[C@@H](C(C)C)O2)OC1=O` [bafilomycin A1], the “inhibition of heparanase processing” value in the assay with heparanase processing [1] (heparanase-transfected C6 glioma and NMU cells, indicated concentration (nM), 20 hours) was “complete inhibition”. Besides, the “concentration that completely inhibited heparanase processing” value with heparanase processing [1] (transfected C6 glioma and NMU cells, 20 hours) was at most 250 nM.
As for `CCN(CC)CCCC(C)Nc1ccnc2cc(Cl)ccc12` (stereo not shown) [chloroquine], the “reversibility of the inhibition of heparanase processing” value in the assay on heparanase processing [1] (heparanase-transfected C6 glioma cells, 50 μM 20 hours, then 24 hours chase in chloroquine-free medium) was “reversible”. Moreover, the “inhibition of heparanase processing” value in the assay with heparanase processing [1] (heparanase-transfected HEK-293, MDA-435, C6 and NMU cells, increasing concentrations, 20 hours, dose dependent) is “completely inhibited”. Moreover, the “inhibition of processing of exogenously-added heparanase” value in the assay with heparanase processing [2] was “completely inhibited”. Besides, in the assay with heparanase processing [3], the “inhibition of processing of membrane-targeted heparanase” value is “completely abolished”.
With “KKFKNSTYSRSSVD (listed as Homo sapiens) [synthetic peptide of residues Lys158-Asp171 of human heparanase]”, the “inhibition of heparanase enzymatic activity” value with heparanase [4] is “significantly inhibited”; with heparanase [4] (listed as Synthetic Peptide Comprising Amino Acid Residues 158 to 171 of Heparanase), “Completely Blocks”.
PI-88: at heparanase [5], the “inhibition of heparanase activity” value was “inhibit heparanase activity”.
Turning to laminaran sulfate, the “inhibition of heparanase activity” value at heparanase [5] is reported as “inhibit heparanase activity”.
